Experimental data taken from ChEMBL document CHEMBL1146617, “2-Aryl-3,6-dialkyl-5-dialkylaminopyrimidin-4-ones as novel crf-1 receptor antagonists” (Bioorg Med Chem Lett, 2003).

Assay: in vitro
Settings: human, microsomes

Row | half-life | SMILES
1 | 2.3 min | CCCN(CCC)c1c(CC)nc(-c2c(C)cc(C)cc2OC)n(CC)c1=O
2 | 1.8 min | CCCN(CCC)c1c(C)nc(-c2c(OC)cccc2OC(F)F)n(CC)c1=O
3 | 3.4 min | CCCN(CCC)c1c(C)nc(-c2c(C)cc(C)cc2OC)n(CC(F)(F)F)c1=O
4 | 2.3 min | CCCN(CCC)c1c(C)nc(-c2ccc(OC)cc2OC)n(CCC)c1=O
5 | 1.3 min | CCCN(CCC)c1c(C)nc(-c2ccc(OC)cc2OC)n(CCOC)c1=O
6 | 9.4 min | CCCN(CCC)c1c(C)nc(-c2ccc(OC)cc2OC)nc1O
7 | 3 min | CCCN(CCC)c1c(C)nc(-c2c(C)cc(C)cc2OC)n(CCC)c1=O
8 | 1.9 min | CCCN(CCC)c1c(C)nc(-c2ccc(Cl)cc2Cl)n(CC)c1=O
9 | 2.1 min | CCCN(CCC)c1c(C)nc(-c2c(C)cc(C)cc2OC)n(C(C)C)c1=O
10 | 3 min | CCCN(CCC)c1c(C)nc(-c2c(C)cc(C)cc2OC)n(CCF)c1=O

The next lines start with the molecule.

Row | SMILES | half-life
11 | CCCN(CCC)c1c(C)nc(-c2c(C)cc(C)cc2OC)n(C)c1=O | 2.5 min
12 | CCCN(CCC)c1c(C)nc(-c2c(C)cc(C)cc2C)n(CCN2CCCC2)c1=O | 4.2 min
13 | CCCN(CCC)c1c(C)nc(-c2c(OC)cccc2OC(F)F)nc1O | 21.6 min
14 | CCCN(CCC)c1c(CC)nc(-c2c(C)cc(C)cc2OC)[nH]c1=O | 8.1 min
15 | CCCN(CCC)c1c(C)nc(-c2c(C)cc(C)cc2OC)nc1O | 15.5 min
16 | CCCN(CCC)c1c(C)nc(-c2c(C)cc(C)cc2C)n(C)c1=O | 4.6 min
17 | CCCN(CCC)c1c(C)nc(-c2c(OC)cccc2OC)nc1O | 13.3 min
18 | CCCN(CCC)c1c(C)nc(-c2c(C)cc(C)cc2C)nc1O | 7.5 min
19 | CCCN(CCC)c1c(C)nc(-c2ccc(OC)cc2OC)n(CC2CC2)c1=O | 1.5 min
20 | CCCN(CCC)c1c(C)nc(-c2c(C)cc(C)cc2C)n(CC)c1=O | 3.6 min
